# Key:
# [1] = tested on: NSC-34 G93A cells; test: Cell culture model of familial ALS, NSC-34 cells expressing mutant G93A-SOD1; type: cell-based, mouse; conditions: 48 h induction; even at a concentration as low as 0.5 μM
# Protocol: Mutant-superoxide dismutase (G93A-SOD1) is associated with familial amyotrophic lateral sclerosis (FALS). A cell culture model of FALS was implemented by stably transfecting mouse motoneuronal NSC-34 cells or SH-SY5Y cells, to express mutant G93A-SOD1 at levels approximating those seen in the human disease. NSC-34 cells or SH-SY5Y cells were incubated in Dulbecco's modified Eagle's/F-12 medium supplemented with 10% FCS tetracycline-free (FCS Tet-free; Clontech), at 37° C. in an atmosphere of 5% CO2 in air. These cell lines are stably transfected with the pTet-ON plasmid (Clontech, Palo Alto, Calif.) coding for the reverse tetracycline controlled transactivator (rtTA). Induction of mutant SOD1 expression was obtained by shifting nonconfluent cultures into growth medium containing 1% N2 supplement (Invitrogen, Carlsbad, Calif.) and […] doxocyclin for 48 h in the presence or absence of corrole 1C-Fe and 5C-Fe.
# [2] = tested on: clonal beta cell lines; test: Toxicity of corrole alone (without H2O2) on clonal beta cell lines; type: cell-based; conditions: without H2O2, concentrations up to 50 μM
# [3] = Peroxynitrite decomposition rates by manganese corroles (Example 2); type: biochemical; conditions: 385 μM peroxynitrite, pH 7.4, 25° C., absorbance at 302 nm; Table 2
# Protocol: The investigations were performed by examining the decay of 385 μM peroxynitrite at pH 7.4 and 25° C. in the presence and absence of various amounts of Mn corrole catalysts 2C-Mn, 2C′-Mn, 2C″-Mn, 3C-Mn and 4C-Mn. The differences between 2C-Mn, 2C′-Mn, and 2C″-Mn is in the identity of the 10-aryl group, which is C6F5, para-anisyl, and phenyl, respectively. The results (one example using 4C-Mn is shown in FIG. 1) were obtained by monitoring changes in absorbance at 302 nm, the λmax of peroxynitrite. The catalytic performances of five of the above compounds were tested; and the thus elucidated kcat values are presented in Table 2. Importantly, in sharp contrast with the corroles, none of the structurally similar manganese (III) porphyrin complexes affected the decomposition of peroxynitrite by any extent (not shown).
compound,measurement,setting,value
"O=S(=O)(O)c1cc2[n]3c1C(c1c(F)c(F)c(F)c(F)c1F)=C1C=CC4=[N+]1[Fe-]31[n]3c(cc(S(=O)(=O)O)c3-2)C(c2c(F)c(F)c(F)c(F)c2F)=c2ccc([n]21)=C4c1c(F)c(F)c(F)c(F)c1F (stereo not drawn) [1C-Fe, 2,17-bis(sulfonato)-5,10,15-tris(pentafluorophenyl)-corrolato iron(III)]",cell viability of induced mutant cells,[1],significantly improved cell viability
same,toxicity when given alone,[2],shows no toxicity
"C[n+]1ccc(C2=C3C=CC4=[N+]3[Mn-]35[n]6c2ccc6-c2ccc([n]23)C(c2cc[n+](C)cc2)=c2ccc([n]25)=C4c2c(F)c(F)c(F)c(F)c2F)cc1.[I-].[I-] (stereo not drawn) [2C-Mn, 5,15-bis(4-N-methyl-pyridilium)-10-pentafluorophenyl-corrolato manganese(III) diiodide salt]","kcat, peroxynitrite decomposition rate",[3],150000 M⁻¹ s⁻¹
